Assay [1] deals with T1, purified wild type MGL (wt-MGLL 6H-11-313) (Homo sapiens, UniProt Q99685).
T1 construct: purified wild type MGL (wt-MGLL 6H-11-313)
T1 sequence (Q99685 1-303): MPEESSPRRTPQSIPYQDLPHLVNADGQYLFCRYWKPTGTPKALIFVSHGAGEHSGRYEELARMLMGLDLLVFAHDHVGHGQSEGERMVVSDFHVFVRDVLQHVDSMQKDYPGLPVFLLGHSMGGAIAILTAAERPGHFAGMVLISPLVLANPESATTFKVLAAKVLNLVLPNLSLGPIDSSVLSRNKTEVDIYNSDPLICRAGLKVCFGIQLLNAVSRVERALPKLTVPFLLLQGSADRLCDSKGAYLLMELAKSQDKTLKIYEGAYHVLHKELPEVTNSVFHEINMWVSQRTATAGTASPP
The assay can be described thus: MGL enzyme activity assay (4MU-B cleavage), wild type MGL. It counts as biochemical. As to conditions: wild type MGL 5 nM, 4MU-B 10 μM, 37° C.; read-out: MGL wild type inh IC50. The method, boiled down:
(§1)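 Enzyme in 20 mM PIPES pH 7.0, 150 mM NaCl, 0.001% Tween 20 with 4MU-B at 10 μM final and MGL at 5 nM final; compounds 17 to 0.0003 μM final, enzyme added last. Fluorescence (ex 335/em 440 nm) followed at 37° C for 5 min; IC50 from fit of fractional activity versus inhibitor concentration.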

Assay [2] concerns MGL (rat brain homogenate). Nature of the assay: 2-AG accumulation assay in rat brain homogenate. It counts as biochemical. Conditions: compound 1 μM, percent of vehicle 2-AG accumulation. The method, boiled down: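 Rat brain homogenate was incubated with compound for 15 min at 37° C., after which CaCl2 was added to a final concentration of 10 mM and incubation continued for 15 min at 37° C. in 5 mL total. Reactions were stopped with 6 mL of 2:1 chloroform/methanol, and 2-AG accumulated in the organic phase was quantified by HPLC/MS.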

The subject of assay [3] is CFA-induced paw radiant heat hypersensitivity. Nature of the assay: CFA-induced paw radiant heat hypersensitivity. It counts as in vivo. Conditions: rat, 30 mg/kg p.o., 20% HPβCD, last time point 300 min; for inhibition in vivo at 30 mg/kg: po, 5 h, group mean values, read-out: Method 1: peak % reversal. As to the method: Each rat was placed in a test chamber on a warm glass surface and allowed to acclimate for approximately 10 min. A radiant thermal stimulus (beam of light) was focused through the glass onto the plantar surface of each hind paw in turn. The thermal stimulus was automatically shut off by a photoelectric relay when the paw was moved or when the cut-off time was reached (20 sec for radiant heat at ˜5 amps). An initial (baseline) response latency to the thermal stimulus was recorded for each animal prior to the injection of complete Freund's adjuvant (CFA). Twenty-four hours following intraplantar CFA injection, the response latency of the animal to the thermal stimulus was re-evaluated and compared to the animal's baseline response time. […] Immediately following the post-CFA latency assessment, the indicated test compound or vehicle was administered orally. Post-compound treatment withdrawal latency was assessed at fixed time intervals, typically 30, 60, 120, 180, and 300 min. • The percent reversal (% R) of hypersensitivity was calculated in one of two different ways: 1) using group mean values or 2) using individual animal values. More specifically: • Method 1. For all compounds, the % R of hypersensitivity was calculated using the mean value for groups of animals at each time point according to the following formula: % reversal=[(group treatment response−group CFA response)/(group baseline response−group CFA response)]×100 • Results are given for the maximum % reversal observed for each compound at any time point tested. • Method 2. For some compounds, the % R of hypersensitivity was calculated separately for each animal according to the following formula: % reversal=[(individual treatment response−individual CFA response)/(individual baseline response−individual CFA response)]×100. • Results are given as a mean of the maximum % reversal values calculated for each individual animal.

Assay [4] deals with T2, purified mutant MGL (mut-MGLL 11-313 L179S L186S) (Homo sapiens, UniProt Q99685, L169S/L176S).
T2 construct: purified mutant MGL (mut-MGLL 11-313 L179S L186S)
T2 sequence (Q99685 1-303 L169S/L176S): T1 sequence (Q99685 1-303) with L169S, L176S
The assay can be described thus: MGL enzyme activity assay (4MU-B cleavage), mutant MGL. It counts as biochemical. As to conditions: mutant MGL 5 nM, 4MU-B 10 μM, 37° C.; read-out: MGL mutant inh IC50. The method, boiled down: as §1

The target of a further assay is T3, mutant MGL (Homo sapiens, UniProt Q99685, L169S/L176S).
T3 construct: purified mutant MGL (mut-MGLL 11-313 L179S L186S)
T3 sequence (Q99685 1-303 L169S/L176S): T1 sequence (Q99685 1-303) with L169S, L176S
The assay can be described thus: MGL ThermoFluor assay - mutant. As to conditions: qNMR-corrected compound concentration; read-out: MGL mutant ThermoFluor qKd. It counts as binding. Here is the method: The ThermoFluor (TF) assay is a 384-well plate-based binding assay that measures thermal stability of proteins^1,2. The experiments were carried out using instruments available from Johnson & Johnson Pharmaceutical Research & Development, LLC. TF dye used in all experiments was 1,8-ANS (Invitrogen: A-47). Final TF assay conditions used for MGL studies were 0.07 mg/ml of mutant MGL, 100 μM ANS, 200 mM NaCl, 0.001% Tween-20 in 50 mM PIPES (pH=7.0).
Screening compound plates contained 100% DMSO compound solutions at a single concentration. For follow-up concentration-response studies, compounds were arranged in a pre-dispensed plate (Greiner Bio-one: 781280), wherein compounds were serially diluted in 100% DMSO across 11 columns within a series. Columns 12 and 24 were used as DMSO reference and contained no compound. For both single and multiple compound concentration-response experiments, the compound aliquots (46 nL) were robotically predispensed directly into 384-well black assay plates (Abgene: TF-0384/k) using the Hummingbird liquid handler. Following compound dispension, protein and dye solutions were added to achieve the final assay volume of 3 μL. The assay solutions were overlayed with 1 μL of silicone oil (Fluka, type DC 200: 85411) to prevent evaporation.
Bar-coded assay plates were robotically loaded onto a thermostatically controlled PCR-type thermal block and then heated from 40 to 90° C. degrees at a ramp-rate of 1° C./min for all experiments. Fluorescence was measured by continuous illumination with UV light (Hamamatsu LC6), supplied via fiber optics and filtered through a band-pass filter (380-400 nm; >6 OD cutoff). Fluorescence emission of the entire 384-well plate was detected by measuring light intensity using a CCD camera (Sensys, Roper Scientific) filtered to detect 500±25 nm, resulting in simultaneous and independent readings of all 384 wells. A single image with 20-sec exposure time was collected at each temperature, and the sum of the pixel intensity in a given area of the assay plate was recorded vs temperature and fit to standard equations to yield the Tm^1. • 1. Pantoliano, M. W., Petrella, E. C., Kwasnoski, J. D., Lobanov, V. S., Myslik, J., Graf, E., Carver, T., Asel, E., Springer, B. A., Lane, P., and Salemme, F. R. (2001) J Biomol Screen 6, 429-40. • 2. Matulis, D., Kranz, J. K., Salemme, F. R., and Todd, M. J. (2005) Biochemistry 44, 5258-66.
The Kd values for certain compounds of Formula (I) were determined from a fit of the equation to the concentration-response plot of the fractional activity as a function of […]. For some experiments, quantitative NMR spectroscopy (qNMR) was used to measure concentration of the initial 100% DMSO compound solutions and, using the same fitting method, qKd values were determined.
On the technique in general: DSF heats the sample and reads unfolding from a dye or from intrinsic fluorescence.

Residue numbers refer to the chain shown, from its start.

With `Cn1cc(-c2cccc(C(F)(F)F)c2)c2ccc(C(=O)N3CC(N[C@H]4CCN(C(=O)c5nccs5)C4)C3)cc21` [Cpd 162, (3S)-N-[1-({1-Methyl-3-[3-(trifluoromethyl)phenyl]-1H-indol-6-yl}carbonyl)azetidin-3-yl]-1-(1,3-thiazol-2-ylcarbonyl)pyrrolidin-3-amine], the IC50 in assay [1] stood at 0.0063 µM. Further, the “Rat Brain 2AG % VehCntrl (%) @1 μM” value in assay [2] worked out at 911%. Also, in assay [3], the inhibition in vivo at 30 mg/kg worked out at 69.7%.

As to `O=C(c1ccc2c(ccn2-c2ccc(F)cc2)c1)N1CC(N[C@H]2CCN(C(=O)c3nccs3)C2)C1` [Cpd 159, (3S)-N-(1-{[1-(4-Fluorophenyl)-1H-indol-5-yl]carbonyl}azetidin-3-yl)-1-(1,3-thiazol-2-ylcarbonyl)pyrrolidin-3-amine], in assay [1], the concentration for half-maximal inhibition (IC50) turned out to be 0.006 µM. For the same compound, in assay [2], the “Rat Brain 2AG % VehCntrl (%) @1 μM” value was found to be 476%. The inhibition in vivo at 30 mg/kg in assay [3] was 56.5%.

As to `O=C(c1ccc2c(-c3cccc(C(F)(F)F)c3)c[nH]c2c1)N1CC(N[C@H]2CCN(C(=O)c3nccs3)C2)C1` [Cpd 105, (3S)-1-(1,3-Thiazol-2-ylcarbonyl)-N-[1-({3-[3-(trifluoromethyl)phenyl]-1H-indol-6-yl}carbonyl)azetidin-3-yl]pyrrolidin-3-amine], the IC50 in assay [1] came to 0.018 µM. The “Rat Brain 2AG % VehCntrl (%) @1 μM” value in assay [2] is recorded as 812%. Also, the inhibition in vivo at 30 mg/kg in assay [3] worked out at 37.2%.

Take `O=C(c1ccc(-c2cccc(C(F)(F)F)c2)cc1)N1CC(N[C@H]2CN(C(=O)c3ccccc3)CC2F)C1` (single isomer, unassigned) [Cpd 63]: the 50% inhibitory concentration (IC50) turned out to be 0.0063 µM in assay [4] and 0.0666 µM in assay [1]. Moreover, the “Rat Brain 2AG % VehCntrl (%) @1 μM” value in assay [2] came to 696%. In addition, in assay [3], the inhibition in vivo at 30 mg/kg was -8.2%.

On to `Cc1c(C(=O)N2CC(N[C@H]3CCN(C(=O)c4ccccc4)C3)C2)sc2ccc(-c3ccc(C(F)(F)F)cc3)cc12` [Cpd 40, (3S)-N-[1-({3-Methyl-5-[4-(trifluoromethyl)phenyl]-1-benzothiophen-2-yl}carbonyl)azetidin-3-yl]-1-(phenylcarbonyl)pyrrolidin-3-amine], for which the 50% inhibitory concentration (IC50) in assay [4] came out at 0.0189 µM; in assay [1], 0.016 µM. The “Rat Brain 2AG % VehCntrl (%) @1 μM” value in assay [2] stood at 1145%. In addition, the inhibition in vivo at 30 mg/kg in assay [3] was 15.9%. The “Method 2: peak % reversal” value in assay [3] (individual animal values) amounted to 17.3%.

For `O=C(c1nccs1)N1CC[C@H](NC2CN(C(=O)c3cccc4c3ccn4-c3ccc(F)cc3)C2)C1` [Cpd 214, (3S)-N-(1-{[1-(4-Fluorophenyl)-1H-indol-4-yl]carbonyl}azetidin-3-yl)-1-(1,3-thiazol-2-ylcarbonyl)pyrrolidin-3-amine], the IC50 in assay [1] is 0.106 µM. Also, in assay [2], the “Rat Brain 2AG % VehCntrl (%) @1 μM” value is given as 524%. The Kd on mutant MGL is 0.53 µM.

Take `O=C(c1ccc(-c2cccc(C(F)(F)F)c2)cc1)N1CC(N[C@H]2CCN(C(=O)c3cscn3)C2)C1` [Cpd 114, (3S)-1-(1,3-Thiazol-4-ylcarbonyl)-N-(1-{[3′-(trifluoromethyl)biphenyl-4-yl]carbonyl}azetidin-3-yl)pyrrolidin-3-amine]: the half-maximal inhibitory concentration (IC50) in assay [1] was determined as 0.0167 µM. In assay [2], the “Rat Brain 2AG % VehCntrl (%) @1 μM” value worked out at 311%. Besides, the inhibition in vivo at 30 mg/kg in assay [3] worked out at 25.1%.

As for `O=C(c1ccc2c(-c3cccc(C(F)(F)F)c3)c[nH]c2c1)N1CC(N[C@H]2CCN(C(=O)c3ccccc3)C2)C1` [Cpd 103, (3S)-1-(Phenylcarbonyl)-N-[1-({3-[3-(trifluoromethyl)phenyl]-1H-indol-6-yl}carbonyl)azetidin-3-yl]pyrrolidin-3-amine], the concentration for half-maximal inhibition (IC50) in assay [1] is 0.015 µM. Besides, the “Rat Brain 2AG % VehCntrl (%) @1 μM” value in assay [2] was 332%. In addition, the inhibition in vivo at 30 mg/kg in assay [3] is 28%.

For the compound `Cn1cc(-c2cccc(F)c2)c2ccc(C(=O)N3CC(N[C@H]4CCN(C(=O)c5ccccc5)C4)C3)cc21` [Cpd 207, (3S)-N-(1-{[3-(3-Fluorophenyl)-1-methyl-1H-indol-6-yl]carbonyl}azetidin-3-yl)-1-(phenylcarbonyl)pyrrolidin-3-amine], the half-maximal inhibitory concentration (IC50) in assay [1] came out at 0.0639 µM. Also, the “Rat Brain 2AG % VehCntrl (%) @1 μM” value in assay [2] is recorded as 238%. Moreover, the Kd on mutant MGL was 0.1 µM.

As for `O=C(c1nccs1)N1CC[C@H](NC2CN(C(=O)c3cccc4c3CCN4c3ccc(F)cc3)C2)C1` [Cpd 216, (3S)-N-(1-{[1-(4-Fluorophenyl)-2,3-dihydro-1H-indol-4-yl]carbonyl}azetidin-3-yl)-1-(1,3-thiazol-2-ylcarbonyl)pyrrolidin-3-amine], the IC50 in assay [1] is 0.0945 µM. Moreover, in assay [2], the “Rat Brain 2AG % VehCntrl (%) @1 μM” value was found to be 260%. For the same compound, the Kd at mutant MGL turned out to be 0.462 µM.

On to `O=C(c1ccc2c(-c3cccc(F)c3)c[nH]c2c1)N1CC(N[C@H]2CCN(C(=O)c3nccs3)C2)C1` [Cpd 202, (3S)-N-(1-{[3-(3-Fluorophenyl)-1H-indol-6-yl]carbonyl}azetidin-3-yl)-1-(1,3-thiazol-2-ylcarbonyl)pyrrolidin-3-amine], for which the half-maximal inhibitory concentration (IC50) in assay [1] turned out to be 0.011 µM. Also, the “Rat Brain 2AG % VehCntrl (%) @1 μM” value in assay [2] is listed as 363%. In addition, the Kd at mutant MGL was found to be 0.0563 µM.

One may read the IC50 as the concentration needed to halve the response being measured.
